{
  "source": "ChEMBL document CHEMBL4024706",
  "about": "(Eur J Med Chem, 2017)",
  "key": {"[1]": {"target": "Macrophage-stimulating protein receptor (Homo sapiens) (UniProt Q04912)", "assay": "Inhibition of wild-type human partial length MST1R (I1057 to L1363 residues) expressed in bacterial expression system assessed as residual activity at 1 uM by Kinomescan method relative to control"}, "[2]": {"target": "Tyrosine-protein kinase ABL2 (Homo sapiens) (UniProt P42684)", "assay": "Inhibition of wild-type human ABL2 (A248 to G542 residues) expressed in bacterial expression system assessed as residual activity at 1 uM by Kinomescan method relative to control"}, "[3]": {"target": "Cyclin-dependent kinase 5 (Homo sapiens) (UniProt Q00535)", "sequence (Q00535 whole entry, looked up, the tested form may be a part)": "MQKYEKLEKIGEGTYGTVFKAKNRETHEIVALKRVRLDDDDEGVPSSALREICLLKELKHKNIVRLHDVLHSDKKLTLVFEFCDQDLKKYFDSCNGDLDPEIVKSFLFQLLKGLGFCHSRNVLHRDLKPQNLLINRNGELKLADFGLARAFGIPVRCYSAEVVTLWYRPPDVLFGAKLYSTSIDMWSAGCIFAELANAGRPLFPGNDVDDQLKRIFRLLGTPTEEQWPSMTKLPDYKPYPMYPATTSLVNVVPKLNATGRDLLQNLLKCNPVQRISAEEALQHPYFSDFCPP", "assay": "Inhibition of wild-type human full length CDK5 (M1 to P292 residues) expressed in bacterial expression system assessed as residual activity at 1 uM by Kinomescan method relative to control"}, "[4]": {"target": "Serine/threonine-protein kinase 3 (Homo sapiens) (UniProt Q13188)", "assay": "Inhibition of wild-type human partial length MST2 (D17 to E318 residues) expressed in bacterial expression system assessed as residual activity at 1 uM by Kinomescan method relative to control"}, "[5]": {"target": "Cyclin-dependent kinase-like 2 (Homo sapiens) (UniProt Q92772)", "assay": "Inhibition of wild-type human partial length CDKL2 (M1 to D327 residues) expressed in bacterial expression system assessed as residual activity at 1 uM by Kinomescan method relative to control"}, "[6]": {"target": "Tyrosine-protein kinase ABL1 (Homo sapiens) (UniProt P00519)", "assay": "Inhibition of wild-type human phosphorylated ABL1 (S229 to K512 residues) expressed in mammalian expression system assessed as residual activity at 1 uM by Kinomescan method relative to control"}, "[7]": {"target": "Serine/threonine-protein kinase PAK 6 (Homo sapiens) (UniProt Q9NQU5)", "assay": "Inhibition of wild-type human partial length PAK6 (N298 to C681 residues) expressed in bacterial expression system assessed as residual activity at 1 uM by Kinomescan method relative to control"}, "SU-DHL-2": {"test_system": "SU-DHL-2", "assay": "Growth inhibition of human SU-DHL-2 cells", "type": "functional", "settings": "Homo sapiens, SU-DHL-2"}, "U2932": {"test_system": "U2932", "assay": "Cell cycle arrest in human U2932 cells assessed as increase in accumulation at G0/G1 phase after 48 hrs by propidium iodide/RNase staining based flow cytometric method", "type": "functional"}, "[8]": {"target": "Casein kinase I isoform alpha-like (Homo sapiens) (UniProt Q8N752)", "sequence (Q8N752 whole entry, the tested form may be a part, canonical isoform)": "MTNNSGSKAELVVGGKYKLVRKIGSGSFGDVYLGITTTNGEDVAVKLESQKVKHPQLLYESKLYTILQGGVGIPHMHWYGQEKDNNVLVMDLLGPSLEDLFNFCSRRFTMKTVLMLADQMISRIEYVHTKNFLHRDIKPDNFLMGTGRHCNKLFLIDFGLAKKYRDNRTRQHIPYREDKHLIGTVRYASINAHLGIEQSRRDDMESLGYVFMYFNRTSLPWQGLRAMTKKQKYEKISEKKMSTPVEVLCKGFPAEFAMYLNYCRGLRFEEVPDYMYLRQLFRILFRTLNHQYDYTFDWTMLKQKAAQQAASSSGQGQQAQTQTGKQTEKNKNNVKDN", "assay": "Inhibition of wild-type human full length CSNK1A1L (M1 to N337 residues) expressed in bacterial expression system assessed as residual activity at 1 uM by Kinomescan method relative to control"}, "[9]": {"test_system": "Phosphatidylinositol 4,5-bisphosphate 3-kinase catalytic subunit alpha isoform (Homo sapiens), P42336 [H1047Y]", "assay": "Inhibition of human partial length PIK3CA H1047Y mutant (R108 to N1068 residues) expressed in mammalian expression system assessed as residual activity at 1 uM by Kinomescan method relative to control"}, "[10]": {"target": "Insulin receptor (Homo sapiens) (UniProt P06213)", "sequence (P06213 28-758 limits assumed)": "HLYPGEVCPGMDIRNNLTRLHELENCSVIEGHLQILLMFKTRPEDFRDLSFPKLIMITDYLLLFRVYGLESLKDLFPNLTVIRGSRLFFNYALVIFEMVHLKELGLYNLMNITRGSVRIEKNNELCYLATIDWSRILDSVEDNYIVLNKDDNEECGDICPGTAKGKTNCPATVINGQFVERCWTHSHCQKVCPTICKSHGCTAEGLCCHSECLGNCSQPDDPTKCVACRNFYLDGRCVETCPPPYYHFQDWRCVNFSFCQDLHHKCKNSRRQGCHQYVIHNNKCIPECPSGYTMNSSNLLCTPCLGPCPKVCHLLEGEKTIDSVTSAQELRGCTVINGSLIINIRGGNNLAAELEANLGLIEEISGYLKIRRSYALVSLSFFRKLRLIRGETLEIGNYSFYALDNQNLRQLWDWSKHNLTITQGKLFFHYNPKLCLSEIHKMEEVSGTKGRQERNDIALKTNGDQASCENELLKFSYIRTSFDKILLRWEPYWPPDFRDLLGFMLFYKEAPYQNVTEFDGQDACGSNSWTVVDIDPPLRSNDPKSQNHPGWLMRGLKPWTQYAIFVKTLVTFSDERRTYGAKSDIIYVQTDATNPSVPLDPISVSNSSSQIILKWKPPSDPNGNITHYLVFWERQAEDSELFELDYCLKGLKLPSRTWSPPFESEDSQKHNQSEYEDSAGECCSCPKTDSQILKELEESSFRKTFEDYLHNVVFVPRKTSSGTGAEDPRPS", "sequence (P06213 763-1382 limits assumed)": "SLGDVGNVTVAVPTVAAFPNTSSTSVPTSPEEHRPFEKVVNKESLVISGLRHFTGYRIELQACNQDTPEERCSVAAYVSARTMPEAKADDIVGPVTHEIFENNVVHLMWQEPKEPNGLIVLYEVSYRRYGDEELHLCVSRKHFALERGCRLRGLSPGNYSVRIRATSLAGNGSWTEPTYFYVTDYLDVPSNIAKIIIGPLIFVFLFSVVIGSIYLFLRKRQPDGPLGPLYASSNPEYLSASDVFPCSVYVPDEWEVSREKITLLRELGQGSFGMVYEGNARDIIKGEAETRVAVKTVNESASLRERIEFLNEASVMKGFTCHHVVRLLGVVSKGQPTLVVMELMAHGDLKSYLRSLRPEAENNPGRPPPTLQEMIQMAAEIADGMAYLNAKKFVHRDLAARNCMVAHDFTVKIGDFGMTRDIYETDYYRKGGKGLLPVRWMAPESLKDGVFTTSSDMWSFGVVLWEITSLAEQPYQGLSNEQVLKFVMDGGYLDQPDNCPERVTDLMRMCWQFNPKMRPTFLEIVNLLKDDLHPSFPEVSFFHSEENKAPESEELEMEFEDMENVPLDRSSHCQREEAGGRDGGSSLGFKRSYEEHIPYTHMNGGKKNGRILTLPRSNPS", "assay": "Inhibition of wild-type human partial length INSR (P997 to E1318 residues) expressed in mammalian expression system assessed as residual activity at 1 uM by Kinomescan method relative to control"}, "[11]": {"target": "Ankyrin repeat and protein kinase domain-containing protein 1 (Homo sapiens) (UniProt Q8NFD2)", "sequence (Q8NFD2 whole entry, the tested form may be a part)": "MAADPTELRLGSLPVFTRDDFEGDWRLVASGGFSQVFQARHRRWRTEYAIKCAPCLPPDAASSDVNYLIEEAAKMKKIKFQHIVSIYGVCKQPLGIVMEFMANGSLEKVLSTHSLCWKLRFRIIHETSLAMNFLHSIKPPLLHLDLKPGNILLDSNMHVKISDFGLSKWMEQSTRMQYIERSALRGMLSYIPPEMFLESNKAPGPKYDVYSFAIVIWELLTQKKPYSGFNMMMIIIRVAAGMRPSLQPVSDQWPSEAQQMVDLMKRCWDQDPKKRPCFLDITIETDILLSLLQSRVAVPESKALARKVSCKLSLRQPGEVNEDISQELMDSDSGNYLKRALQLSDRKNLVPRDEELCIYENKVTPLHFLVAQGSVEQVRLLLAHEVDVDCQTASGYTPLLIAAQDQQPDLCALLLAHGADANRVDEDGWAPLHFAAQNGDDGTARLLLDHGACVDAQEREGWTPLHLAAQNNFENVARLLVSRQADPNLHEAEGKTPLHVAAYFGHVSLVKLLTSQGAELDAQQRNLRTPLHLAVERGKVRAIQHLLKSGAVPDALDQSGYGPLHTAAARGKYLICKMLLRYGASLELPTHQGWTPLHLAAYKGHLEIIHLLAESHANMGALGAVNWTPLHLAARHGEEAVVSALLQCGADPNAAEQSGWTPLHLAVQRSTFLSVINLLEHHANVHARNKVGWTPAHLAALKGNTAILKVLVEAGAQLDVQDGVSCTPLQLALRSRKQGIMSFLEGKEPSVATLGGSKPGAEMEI", "assay": "Inhibition of wild-type human partial length ANKK1 (M1 to A305 residues) expressed in mammalian expression system assessed as residual activity at 1 uM by Kinomescan method relative to control"}, "[12]": {"target": "Serine/threonine-protein kinase tousled-like 2 (Homo sapiens) (UniProt Q86UE8)", "assay": "Inhibition of wild-type human partial length TLK2 (E424 to N749 residues) expressed in bacterial expression system assessed as residual activity at 1 uM by Kinomescan method relative to control"}, "[13]": {"target": "Serine/threonine-protein kinase TBK1 (Homo sapiens) (UniProt Q9UHD2)", "assay": "Inhibition of wild-type human full length TBK1 (M1 to L729 residues) expressed in mammalian expression system assessed as residual activity at 1 uM by Kinomescan method relative to control"}, "[14]": {"target": "Mitogen-activated protein kinase kinase kinase 5 (Homo sapiens) (UniProt Q99683)", "assay": "Inhibition of wild-type human partial length ASK1 (E648 to S964 residues) expressed in bacterial expression system assessed as residual activity at 1 uM by Kinomescan method relative to control"}, "[15]": {"target": "Proto-oncogene tyrosine-protein kinase ROS (Homo sapiens) (UniProt P08922)", "assay": "Inhibition of wild-type human partial length ROS1 (A1921 to N2240 residues) expressed in bacterial expression system assessed as residual activity at 1 uM by Kinomescan method relative to control"}, "[16]": {"target": "Receptor-type tyrosine-protein kinase FLT3 (Homo sapiens) (UniProt P36888)", "sequence (P36888 whole entry, the tested form may be a part)": "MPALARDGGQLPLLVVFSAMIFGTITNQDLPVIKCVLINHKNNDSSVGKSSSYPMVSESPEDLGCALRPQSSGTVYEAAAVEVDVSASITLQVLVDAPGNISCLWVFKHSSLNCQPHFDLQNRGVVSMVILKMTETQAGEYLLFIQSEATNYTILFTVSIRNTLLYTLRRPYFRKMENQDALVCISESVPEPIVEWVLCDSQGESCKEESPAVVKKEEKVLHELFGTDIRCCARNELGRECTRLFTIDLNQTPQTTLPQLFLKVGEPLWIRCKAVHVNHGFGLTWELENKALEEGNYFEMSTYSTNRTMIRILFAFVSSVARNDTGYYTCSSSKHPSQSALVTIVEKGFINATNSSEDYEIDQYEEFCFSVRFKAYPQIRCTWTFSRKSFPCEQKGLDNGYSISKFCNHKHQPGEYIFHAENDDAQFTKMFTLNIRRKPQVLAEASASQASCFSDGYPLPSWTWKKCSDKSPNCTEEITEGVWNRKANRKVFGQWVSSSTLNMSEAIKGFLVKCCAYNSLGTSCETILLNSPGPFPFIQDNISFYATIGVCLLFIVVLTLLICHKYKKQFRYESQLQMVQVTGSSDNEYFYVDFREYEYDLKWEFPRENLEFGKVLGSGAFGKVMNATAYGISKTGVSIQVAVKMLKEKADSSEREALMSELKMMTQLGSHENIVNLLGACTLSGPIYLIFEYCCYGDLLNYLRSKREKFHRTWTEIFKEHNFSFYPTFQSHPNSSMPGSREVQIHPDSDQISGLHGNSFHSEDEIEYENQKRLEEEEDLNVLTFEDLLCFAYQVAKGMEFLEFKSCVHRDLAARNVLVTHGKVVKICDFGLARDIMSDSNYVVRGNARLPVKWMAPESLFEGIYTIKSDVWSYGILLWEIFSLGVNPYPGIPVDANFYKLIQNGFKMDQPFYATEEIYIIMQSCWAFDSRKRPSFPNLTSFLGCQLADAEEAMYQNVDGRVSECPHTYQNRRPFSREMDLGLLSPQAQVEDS", "assay": "Inhibition of wild-type human partial length FLT3 (V592 to Y969 residues) expressed in bacterial expression system assessed as residual activity at 1 uM by Kinomescan method relative to control"}, "[17]": {"target": "Cyclin-dependent kinase 17 (Homo sapiens) (UniProt Q00537)", "sequence (Q00537 whole entry, looked up, the tested form may be a part)": "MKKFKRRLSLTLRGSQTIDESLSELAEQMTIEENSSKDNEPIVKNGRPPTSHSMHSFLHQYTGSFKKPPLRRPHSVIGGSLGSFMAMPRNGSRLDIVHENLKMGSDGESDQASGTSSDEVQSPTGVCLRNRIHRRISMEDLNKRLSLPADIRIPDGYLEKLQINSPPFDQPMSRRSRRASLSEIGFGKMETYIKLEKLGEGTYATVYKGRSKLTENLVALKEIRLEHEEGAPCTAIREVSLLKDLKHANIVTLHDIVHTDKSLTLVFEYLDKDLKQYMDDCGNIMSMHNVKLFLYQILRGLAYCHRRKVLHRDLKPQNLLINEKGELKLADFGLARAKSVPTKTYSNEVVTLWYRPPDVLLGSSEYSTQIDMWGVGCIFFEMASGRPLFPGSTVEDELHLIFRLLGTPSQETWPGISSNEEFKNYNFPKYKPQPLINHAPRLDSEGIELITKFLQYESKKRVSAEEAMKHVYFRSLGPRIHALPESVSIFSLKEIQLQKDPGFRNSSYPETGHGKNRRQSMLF", "assay": "Inhibition of wild-type human full length PCTK2 (M1 to F523 residues) expressed in bacterial expression system assessed as residual activity at 1 uM by Kinomescan method relative to control"}, "[18]": {"target": "Protein kinase C theta type (Homo sapiens) (UniProt Q04759)", "assay": "Inhibition of wild-type human partial length PRKCQ (L350 to S706 residues) expressed in bacterial expression system assessed as residual activity at 1 uM by Kinomescan method relative to control"}, "[19]": {"target": "Serine/threonine-protein kinase 35 (Homo sapiens) (UniProt Q8TDR2)", "assay": "Inhibition of wild-type human partial length STK35 (G182 to A534 residues) expressed in bacterial expression system assessed as residual activity at 1 uM by Kinomescan method relative to control"}, "[20]": {"target": "Uncharacterized serine/threonine-protein kinase SBK3 (Homo sapiens) (UniProt P0C264)", "assay": "Inhibition of wild-type human partial length SgK110 (L22 to R329 residues) expressed in bacterial expression system assessed as residual activity at 1 uM by Kinomescan method relative to control"}, "[21]": {"target": "Dual specificity tyrosine-phosphorylation-regulated kinase 1B (Homo sapiens) (UniProt Q9Y463)", "sequence (Q9Y463 whole entry, looked up, the tested form may be a part)": "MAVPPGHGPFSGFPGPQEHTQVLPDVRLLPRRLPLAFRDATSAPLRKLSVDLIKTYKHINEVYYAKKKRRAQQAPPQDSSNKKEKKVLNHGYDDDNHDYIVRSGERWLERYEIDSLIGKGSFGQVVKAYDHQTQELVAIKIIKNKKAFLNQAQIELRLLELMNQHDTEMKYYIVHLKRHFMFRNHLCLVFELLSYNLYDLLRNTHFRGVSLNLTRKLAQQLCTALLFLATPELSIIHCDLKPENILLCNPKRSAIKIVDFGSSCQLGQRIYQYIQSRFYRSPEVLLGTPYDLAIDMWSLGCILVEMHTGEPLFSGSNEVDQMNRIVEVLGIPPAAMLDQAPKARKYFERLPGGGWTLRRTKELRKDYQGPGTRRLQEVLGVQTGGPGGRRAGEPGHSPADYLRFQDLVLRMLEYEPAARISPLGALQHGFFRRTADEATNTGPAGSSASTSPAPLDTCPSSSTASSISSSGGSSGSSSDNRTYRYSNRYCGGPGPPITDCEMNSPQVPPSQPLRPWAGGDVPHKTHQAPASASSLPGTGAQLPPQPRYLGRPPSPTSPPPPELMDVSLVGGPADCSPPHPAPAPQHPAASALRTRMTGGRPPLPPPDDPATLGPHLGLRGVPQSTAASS", "assay": "Inhibition of wild-type human full length DYRK1B (M1 to S629 residues) expressed in bacterial expression system assessed as residual activity at 1 uM by Kinomescan method relative to control"}, "[22]": {"target": "cGMP-dependent protein kinase 2 (Homo sapiens) (UniProt Q13237)", "assay": "Inhibition of wild-type human partial length PRKG2 (S422 to F762 residues) expressed in mammalian expression system assessed as residual activity at 1 uM by Kinomescan method relative to control"}, "[23]": {"target": "MAP/microtubule affinity-regulating kinase 3 (Homo sapiens) (UniProt P27448)", "assay": "Inhibition of wild-type human full length MARK3 (M1 to L729 residues) expressed in bacterial expression system assessed as residual activity at 1 uM by Kinomescan method relative to control"}, "[24]": {"target": "Serine/threonine-protein kinase TAO3 (Homo sapiens) (UniProt Q9H2K8)", "assay": "Inhibition of wild-type human partial length TAOK3 (M1 to T316 residues) expressed in mammalian expression system assessed as residual activity at 1 uM by Kinomescan method relative to control"}},
  "data": [
    {"smiles": "C=CC(=O)Nc1cc(Nc2cc(-c3cccc(NC(=O)c4ccc(C(C)(C)C)cc4)c3C)cn(C)c2=O)ccc1C(=O)N1CCOCC1", "values": [
      {"measurement": "Activity", "setting": "[1]", "result": 97, "unit": "%"},
      {"measurement": "Activity", "setting": "[2]", "result": 100, "unit": "%"},
      {"measurement": "Activity", "setting": "[3]", "result": 90, "unit": "%"},
      {"measurement": "Activity", "setting": "[4]", "result": 87, "unit": "%"},
      {"measurement": "Activity", "setting": "[5]", "result": 100, "unit": "%"},
      {"measurement": "Activity", "setting": "[6]", "result": 100, "unit": "%"},
      {"measurement": "Activity", "setting": "[7]", "result": 100, "unit": "%"},
      {"measurement": "GI50", "setting": "SU-DHL-2", "result": 3000, "unit": "nM"},
      {"measurement": "Activity", "setting": "U2932", "result": "Dose-dependent effect"},
      {"measurement": "Activity", "setting": "[8]", "result": 100, "unit": "%"},
      {"measurement": "Activity", "setting": "[9]", "result": 91, "unit": "%"},
      {"measurement": "Activity", "setting": "[10]", "result": 100, "unit": "%"},
      {"measurement": "Activity", "setting": "[11]", "result": 98, "unit": "%"},
      {"measurement": "Activity", "setting": "[12]", "result": 100, "unit": "%"},
      {"measurement": "Activity", "setting": "[13]", "result": 100, "unit": "%"},
      {"measurement": "Activity", "setting": "[14]", "result": 100, "unit": "%"},
      {"measurement": "Activity", "setting": "[15]", "result": 100, "unit": "%"},
      {"measurement": "Activity", "setting": "[16]", "result": 94, "unit": "%"},
      {"measurement": "Activity", "setting": "[17]", "result": 100, "unit": "%"},
      {"measurement": "Activity", "setting": "[18]", "result": 91, "unit": "%"},
      {"measurement": "Activity", "setting": "[19]", "result": 94, "unit": "%"},
      {"measurement": "Activity", "setting": "[20]", "result": 77, "unit": "%"},
      {"measurement": "Activity", "setting": "[21]", "result": 74, "unit": "%"},
      {"measurement": "Activity", "setting": "[22]", "result": 96, "unit": "%"},
      {"measurement": "Activity", "setting": "[23]", "result": 100, "unit": "%"},
      {"measurement": "Activity", "setting": "[24]", "result": 94, "unit": "%"}
    ]}
  ]
}
